Molecules are shown by their SMILES. The source made the active and inactive calls. The rule behind the calls is not given here.

The test system of this data set is rodent carcinogenicity bioassays, tumor incidence. Description: CCRIS carcinogenicity studies. Put shortly:
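NCI-built, expert-reviewed records of carcinogenicity and related test outcomes (mutagenicity, tumor promotion/inhibition) compiled from published and report sources, historical span 1985-2011, not updated.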

As to `O=[As]O`, the carcinogen call runs as follows: (Species: Mouse, Strain/Sex: C3H/10 pregnant dams/group, 25 male and 25 female offspring per group assigned at 4 wks of age, Route: Oral, Dose: 0, 42.5, 85 ppm in drinking water of dams, offspring followed for 90 wks, Tumor Site: Type of Lesion: Hepatocellular carcinoma in offspring) “active; positive”; (Species: Mouse, Strain/Sex: C3H/Female offspring, Route: Oral, Dose: 0, 85 ppm (in drinking water of dam) in utero) “inactive; negative”; (Species: Mouse, Strain/Sex: C3H/Female offspring, Route: Oral, Dose: 0, 85 ppm in drinking water post pubescence (PND 56) to 365 days) “inactive; negative (hyperplasia only, no tumors)”; (Species: Mouse, Strain/Sex: C3H/Female offspring, Route: Oral, Dose: 0, 85 ppm in drinking water prior to pubescence (PND 21) to 365 days) “inactive; negative (hyperplasia only, no increase in tumors)”; (Species: Mouse, Strain/Sex: C3H/Female offspring, Route: Oral, Dose: 0, 85 ppm in utero and in drinking water to 365 days) “inactive; negative”; (Species: Mouse, Strain/Sex: C3H/HeNCr F344/ Male and female (25-35/Group as offspring of 10 dams per exposure level), Route: Drinking water, Dose: 0, 42.5, 85 ppm ad lib on gestation days 8-18, study duration for offspring 90 wks, Tumor Site: Type of Lesion: Male offspring: Liver: hepatocellular carcinoma (statistically significant increase in incidence and multiplicity), Adre) “active; positive”. Besides, the carcinogen call is “inactive; negative” (Species: Mouse, Strain/Sex: C3H/Male offspring, Route: Oral, Dose: 0, 85 ppm (in drinking water of dam) in utero); “inactive; negative (decreased incidence of spontaneous tumors)” (Species: Mouse, Strain/Sex: C3H/Male offspring, Route: Oral, Dose: 0, 85 ppm in drinking water post pubescence (PND 56) to 365 days); “inactive; negative (decreased incidence of spontaneous tumors)” (Species: Mouse, Strain/Sex: C3H/Male offspring, Route: Oral, Dose: 0, 85 ppm in drinking water prior to pubescence (PND 21) to 365 days); “active; positive” (Species: Mouse, Strain/Sex: C3H/Male offspring, Route: Oral, Dose: 0, 85 ppm in utero and in drinking water to 365 days, Tumor Site: Type of Lesion: Liver: adenoma and carcinoma (30%, 0%)).

Regarding `Clc1ccc2c(c1)Oc1ccc(Cl)cc1O2`, the carcinogen call (Species: MOUSE, Strain/Sex: B6C3F1/FEMALE, Route: ORAL, Dose: 0, 5,000, 10,000 PPM IN DIET FOR 90 WK (STUDY DURATION: 91-98 WK), Dose: 0, 5,000, 10,000 PPM IN DIET FOR 90 WK (STUDY DURATION: 91-98 WK)) is “inactive; negative”; the carcinogen call (Species: MOUSE, Strain/Sex: B6C3F1/MALE, Route: ORAL, Dose: 0, 5000, 10000 PPM IN DIET FOR 90 WK (STUDY DURATION: 92-101 WK), Dose: 0, 5000, 10000 PPM IN DIET FOR 90 WK (STUDY DURATION: 92-101 WK), Tumor Site: Type of Lesion: LIVER: HEPTOCELLULAR ADENOMA OR CARCINOMA, HEMATOPOIETIC SYSTEM: LYMPHOMA OR LEUKEMIA, SPLEEN: HEMANGIOMA OR HEMANGIOSAR, Tumor Site: Type of Lesion: LIVER: HEPTOCELLULAR ADENOMA OR CARCINOMA, HEMATOPOIETIC SYSTEM: LYMPHOMA OR LEUKEMIA, SPLEEN: HEMANGIOMA OR HEMANGIOSAR) is recorded as “equivocal”; the carcinogen call (Species: RAT, Strain/Sex: OSBORNE-MENDEL/FEMALE, Route: ORAL, Dose: 0, 5,000, 10,000 PPM IN DIET FOR 110 WK (STUDY DURATION: 110-117 WK), Dose: 0, 5,000, 10,000 PPM IN DIET FOR 110 WK (STUDY DURATION: 110-117 WK)) was “inactive; negative”; the carcinogen call (Species: RAT, Strain/Sex: OSBORNE-MENDEL/MALE, Route: ORAL, Dose: 0, 5,000, 10,000 PPM IN DIET FOR 110 WK (STUDY DURATION: 110-112 WK), Dose: 0, 5,000, 10,000 PPM IN DIET FOR 110 WK (STUDY DURATION: 110-112 WK)) was “inactive; negative”.

Consider `Nc1cccc2c(N)cccc12`, for which the carcinogen call is “active; positive” (Species: MOUSE, Strain/Sex: B6C3F1/FEMALE, Route: ORAL, Dose: 0, 0.1, 0.2% IN DIET FOR 103 WK (STUDY DURATION: 105-109 WK), Dose: 0, 0.1, 0.2% IN DIET FOR 103 WK (STUDY DURATION: 105-109 WK), Tumor Site: Type of Lesion: LUNG: ALVEOLAR/BRONCHIOLAR ADENOMA OR CARCINOMA, LIVER: HEPATOCELLULAR CARCINOMA, HEPATOCELLULAR ADENOMA OR CARCINOMA, T, Tumor Site: Type of Lesion: LUNG: ALVEOLAR/BRONCHIOLAR ADENOMA OR CARCINOMA, LIVER: HEPATOCELLULAR CARCINOMA, HEPATOCELLULAR ADENOMA OR CARCINOMA, T); “active; positive” (Species: MOUSE, Strain/Sex: B6C3F1/MALE, Route: ORAL, Dose: 0, 0.1, 0.2% IN DIET FOR 103 WK (STUDY DURATION: 105-109 WK), Dose: 0, 0.1, 0.2% IN DIET FOR 103 WK (STUDY DURATION: 105-109 WK), Tumor Site: Type of Lesion: THYROID GLAND: PAPILLARY ADENOMA OR FOLLICULAR CELL ADENOMA OR PAPILLARY CYSTADENOMA (NOS)); “active; positive” (Species: RAT, Strain/Sex: F344/FEMALE, Route: ORAL, Dose: 0, 0.05, 0.1% IN DIET FOR 103 WK (STUDY DURATION: 106-110 WK), Dose: 0, 0.05, 0.1% IN DIET FOR 103 WK (STUDY DURATION: 106-110 WK), Tumor Site: Type of Lesion: CLITORAL GLAND: ADENOMA (NOS) OR CARCINOMA (NOS), UTERUS: ENDOMETRIAL STROMAL POLYP); “inactive; negative” (Species: RAT, Strain/Sex: F344/MALE, Route: ORAL, Dose: 0, 0.05, 0.1% IN DIET FOR 103 WK (STUDY DURATION: 106-109 WK), Dose: 0, 0.05, 0.1% IN DIET FOR 103 WK (STUDY DURATION: 106-109 WK)).

In the case of `C[C@]12CC[C@@H]3c4ccc(O)cc4CC[C@H]3[C@@H]1C[C@@H](O)C2=O`, where the note is “Species: HAMSTER, Strain/Sex: SYRIAN/MALE, Route: SUBCUTANEOUS IMPLANT, Dose: 0, 20 MG IN PELLETS IMPLANTED EVERY 2.5 MO FOR 9 MO (STUDY DURATION: 9 MO), Tumor Site: Type of Lesion: KIDNEY: TUMOR”, the carcinogen call is “active; positive”.

Turning to `Cc1ccc(N)cc1`, the carcinogen call (Species: MOUSE, Route: ORAL, Tumor Site: Type of Lesion: LIVER) was “active; positive”.

On to `CNC(=O)ON=C(SC)C(=O)N(C)C`, for which the carcinogen call (Species: MOUSE, Strain/Sex: CD-1/FEMALE, Route: ORAL, Dose: 0, 25, 50, 75 PPM IN DIET FOR 2 YR (STUDY DURATION: 2 YR), Dose: 0, 25, 50, 75 PPM IN DIET FOR 2 YR (STUDY DURATION: 2 YR)) was “inactive; negative”; the carcinogen call (Species: MOUSE, Strain/Sex: CD-1/MALE, Route: ORAL, Dose: 0, 25, 50, 75 PPM IN DIET FOR 2 YR (STUDY DURATION: 2 YR), Dose: 0, 25, 50, 75 PPM IN DIET FOR 2 YR (STUDY DURATION: 2 YR)) was “inactive; negative”; the carcinogen call (Species: RAT, Strain/Sex: CRL:CD/FEMALE, Route: ORAL, Dose: 0, 50, 100, 150 PPM IN DIET FOR 2 YR (STUDY DURATION: 2 YR), Dose: 0, 50, 100, 150 PPM IN DIET FOR 2 YR (STUDY DURATION: 2 YR)) was “inactive; negative”; the carcinogen call (Species: RAT, Strain/Sex: CRL:CD/MALE, Route: ORAL, Dose: 0, 50, 100, 150 PPM IN DIET FOR 2 YR (STUDY DURATION: 2 YR), Dose: 0, 50, 100, 150 PPM IN DIET FOR 2 YR (STUDY DURATION: 2 YR)) is “inactive; negative”.
